Laboratory results: patent US12642856B2, “Degraders of hepatitis C virus NS3/4A protein” (DANA-FARBER CANCER INSTITUTE, INC., priority 2018, dated 2026)
Where two headings read alike, the source gives them in different places.

Key:
HCV NS3 fusion protein = molecular target: T1, HCV NS3 fusion protein (UniProt P27958+Q96SW2); assay: NS3 degradation competition assay with lenalidomide; format: cell-based, Hepatitis C virus; conditions: Western blot; for effect of lenalidomide on compound-induced degradation of NS3: excess of cereblon ligand lenalidomide
T1 construct: expressing the full-length HCV NS3 protein fused to eGFP; mCherry via FMVD 2A self-cleavage linker (C, cleaved yes); expressed in transfected cells
Description: The expression of the NS3 fusion protein was induced prior to the treatment of the NS3 expressing cells with an excess of the cereblon ligand lenalidomide.
FIG. 3 is a photograph of a Western blot showing degradation of HCV NS3 in the absence and presence of lenalidomide.

[1] = molecular target: T2, full-length HCV NS3 protein fused to eGFP (UniProt P27958+Q96SW2); assay: Transient cellular HCV NS3 degradation assay; format: cell-based, Hepatitis C virus; conditions: for DC50: read-out: IC50, concentration that led to a 50% reduction in NS3-eGFP accumulation, flow cytometry; for DC50 / degradation of transiently expressed HCV NS3 (decrease in NS3-eGFP abundance): 4 hour treatment; for degradation of HCV NS3 by Western blot: 4-hour and 24-hour treatments, NS3-eGFP and NS3-eGFP-mCherry fusion proteins; for degradation of transiently expressed HCV NS3 (decrease in NS3-eGFP abundance): increasing concentrations
T2 construct: expressing the full-length HCV NS3 protein fused to eGFP; mCherry via FMVD 2A self-cleavage linker (C, cleaved yes); expressed in transfected cells
Description: A system was set up to monitor NS3 degradation in the absence of other processes of the infectious viral cycle. […] Expressed in the absence of its cofactor, NS4A, the NS3 protein lacks any enzymatic activity, and the abundance of the NS3-eGFP fusion protein can be reliably monitored by eGFP fluorescence. Since the mCherry portion of the fusion protein is cleaved off during translation, its abundance in cells is not affected by small molecule-induced degradation of NS3-eGFP, and thus it serves as a control for protein expression. […]
The NS3 expressing cells were treated with increasing concentrations of compounds 13 and 22 for 4 hours. […] Compound 11 is an alpha-hydroxylamide analog of compound 13 that cannot form a covalent bond with the catalytic serine of the HCV NS3/4A protease due to a modification of the α-ketoamide group. […] The NS3 expressing cells were treated with increasing concentrations of compounds for 4 hours.

HCV(NS3-A156S) = assay: Viral resistance assay, HCV(NS3-A156S); format: cell-based, Hepatitis C virus
Experimental: (§1) Mutations A156S and V55A, two well-characterized resistance mutations that are located in the active site of the HCV NS3 protease where telaprevir binds, were selected. Infectious HCV clones bearing the NS3-V55A mutation or the NS3-A156S mutation were generated.
(§2) Huh7.5 cells were infected with wildtype HCV, or the telaprevir-resistant mutant viruses, HCV(NS3-V55A) and HCV(NS3-A156S). Cells were treated 24 hours after infection with a range of small molecule concentrations. The amount of infectious virus released to the supernatants at 48 hours post-infection/24 hours post-treatment was measured using a 50% tissue infectious dose (TCID50) assay. The concentration of compound that led to a 50% reduction in viral titers (IC50) was determined by non-linear regression.

wildtype HCV = assay: Viral resistance assay, wildtype HCV; format: cell-based; conditions: Hepatitis C virus, Huh7.5, read-out: IC50, 50% reduction in viral titers
Experimental: as §1, §2

HCV(NS3-V55A) = assay: Viral resistance assay, HCV(NS3-V55A); format: cell-based, Hepatitis C virus
Experimental: as §1, §2

HCV in Huh7.5 cells = assay: Antiviral infectious assay (TCID50); format: cell-based, Hepatitis C virus; conditions: for IC50: Hepatitis C virus, read-out: IC50, 50% reduction in viral titers
Experimental: (§3) The antiviral activity of the degraders was evaluated in cell culture in a subgenomic replicon assay and an infectious assay. In the subgenomic replicon assay, the hepatoma cell line Huh7.5 was transfected with a HCV subgenomic replicon and treated with small molecules. The luciferase activity encoded by the subgenomic replicon served as a measure for viral replication. In the infectious assay, Huh7.5 cells were infected with HCV, and treated with small molecules. The amount of infectious virus released to the supernatants after treatment with the small molecule degraders served as a measure for their antiviral activity. […] The activity of the compounds described herein is dependent on protein degradation mediated by the cereblon E3 ligase, as HCV NS3 levels are partially rescued in the cereblon-deficient Huh7.5 cell line.
as §2, with “HCV” for “wildtype HCV, or the telaprevir-resistant mutant viruses, HCV(NS3-V55A)”, “and” for “and HCV(NS3-A156S). Cells were”, “treated after” for “treated”, “hours” for “hours after infection”

[2] = system: HCV subgenomic replicon in Huh7.5 cells; assay: Antiviral subgenomic replicon assay; format: cell-based; conditions: Hepatitis C virus, read-out: IC50, 50% reduction in reporter (luciferase) expression levels
Experimental: as §3
Huh7.5 cells were electroporated with the HCV subgenomic replicon and treated after 24 hours with a range of small molecule concentrations. The luciferase activity encoded by the replicon was measured in cells at 48 hours post-electroporation/24 hours post-treatment. The concentration of compound that led to a 50% reduction in reporter expression levels (IC50) was determined by non-linear regression.

[3] = Huh7.5 cells, 48 hours post-infection/24 hours post-treatment, TCID50
[4] = Huh7.5 cells, 48 hours post-electroporation/24 hours post-treatment

`CCC[C@H](NC(=O)[C@@H]1[C@H]2CCC[C@H]2CN1C(=O)[C@@H](NC(=O)[C@@H](NC(=O)c1cnc(C(=O)NCCOCCOCCNc2cccc3c2C(=O)N(C2CCC(=O)N(C)C2=O)C3=O)cn1)C1CCCCC1)C(C)(C)C)C(=O)C(=O)NC1CC1` (stereo partly shown) [Compound 20] was tested, and the “degradation of NS3 in the presence or absence of lenalidomide” value (HCV NS3 fusion protein) was “no significant degradation of NS3”.
For `CCC[C@H](NC(=O)[C@@H]1[C@H]2CCC[C@H]2CN1C(=O)[C@@H](NC(=O)[C@@H](NC(=O)c1cnc(C(=O)NCCOCCOCCOc2cc3c4c(cccc4c2)C(=O)N(C2CCC(=O)NC2=O)C3=O)cn1)C1CCCCC1)C(C)(C)C)C(=O)C(=O)NC1CC1` (stereo partly drawn) [Compound 13, N2-((S)-1-cyclohexyl-2-((S)-1-((1S,3aR,6aS)-1-((S)-1-(cyclopropylamino)-1,2-dioxohexan-3-ylcarbamoyl)hexahydrocyclopenta[c]pyrrol-2(1H)-yl)-3,3-dimethyl-1-oxobutan-2-ylamino)-2-oxoethyl)-N5-(2-(2-(2-(2-(2,6-dioxopiperidin-3-yl)-1,3-dioxo-2,3-dihydro-1H-benzo[de]isoquinolin-5-yloxy)ethoxy)ethoxy)ethyl)pyrazine-2,5-dicarboxamide], the DC50 [1] was 50 nM, the “change in antiviral potency, NS3-A156S vs wildtype” value (HCV(NS3-A156S)) was 3 fold and the IC50 (HCV(NS3-A156S); read-out: IC50, 50% reduction in viral titers, HCV(NS3-A156S), Huh7.5, TCID50) was 1560 nM. The “effect of lenalidomide on compound-induced degradation of NS3” value (from here on “effect of lenalidomide”) (HCV NS3 fusion protein) was “Lenalidomide inhibited degradation of NS3”, the IC50 (wildtype HCV) was 522 nM and the IC50 (HCV(NS3-V55A); read-out: IC50, 50% reduction in viral titers, HCV(NS3-V55A), Huh7.5, TCID50) was 508 nM. For the same compound, the IC50 (HCV in Huh7.5 cells; [3]) was 744 nM and the “antiviral activity compared with telaprevir” value (HCV in Huh7.5 cells; subgenomic replicon and infectious assays, Huh7.5) was “antiviral potency close to that of the parental compound”.
With `CCC[C@H](NC(=O)[C@@H]1[C@H]2CCC[C@H]2CN1C(=O)[C@@H](NC(=O)[C@@H](NC(=O)c1cnc(C(=O)NCCCCCCCC(=O)Nc2cccc3c2CN(C2CCC(=O)NC2=O)C3=O)cn1)C1CCCCC1)C(C)(C)C)C(=O)C(=O)NC1CC1` (stereo partly drawn) [Compound 4, N2-((S)-1-cyclohexyl-2-((S)-1-((1S,3aR,6aS)-1-((S)-1-(cyclopropylamino)-1,2-dioxohexan-3-ylcarbamoyl)hexahydrocyclopenta[c]pyrrol-2(1H)-yl)-3,3-dimethyl-1-oxobutan-2-ylamino)-2-oxoethyl)-N5-(8-(2-(2,6-dioxopiperidin-3-yl)-1-oxoisoindolin-4-ylamino)-8-oxooctyl)pyrazine-2,5-dicarboxamide] the “degradation of HCV NS3 by Western blot” value [1] was “specific reduction in steady-state abundance”, the DC50 [1] was 2680 nM and the “effect of lenalidomide” value (HCV NS3 fusion protein) was “Lenalidomide inhibited degradation of NS3”. For the same compound, the IC50 [2, 4] was 1320 nM.
In the case of `CCC[C@H](NC(=O)[C@@H]1[C@H]2CCC[C@H]2CN1C(=O)[C@@H](NC(=O)[C@@H](NC(=O)c1cnccn1)C1CCCCC1)C(C)(C)C)C(=O)C(=O)NC1CC1` [telaprevir, reference compound], the “degradation of transiently expressed HCV NS3 (decrease in NS3-eGFP abundance)” value (“degradation … (decrease in NS3-eGFP abundance)” for short) [1] is reported as “not observed”, the “change in antiviral potency, NS3-A156S vs wildtype” value (HCV(NS3-A156S)) is reported as 10 fold and the IC50 (wildtype HCV) is reported as 98 nM. For the same compound, the IC50 ([2]; Huh7.5, 48 h) was 240 nM, the “change in antiviral potency, NS3-V55A vs wildtype” value (HCV(NS3-V55A)) was 3 fold and the IC50 (HCV in Huh7.5 cells; Huh7.5, 48 h) was 138 nM.
For `CCC[C@H](NC(=O)[C@@H]1[C@H]2CCC[C@H]2CN1C(=O)[C@@H](NC(=O)[C@@H](NC(=O)c1cnc(C(=O)NCCOCCOCCOc2cc3c4c(cccc4c2)C(=O)N(C2CCC(=O)N(C)C2=O)C3=O)cn1)C1CCCCC1)C(C)(C)C)C(=O)C(=O)NC1CC1` (stereo partly drawn) [Compound 22, N2-((S)-1-cyclohexyl-2-((S)-1-((1S,3aR,6aS)-1-((S)-1-(cyclopropylamino)-1,2-dioxohexan-3-ylcarbamoyl)hexahydrocyclopenta[c]pyrrol-2(1H)-yl)-3,3-dimethyl-1-oxobutan-2-ylamino)-2-oxoethyl)-N5-(2-(2-(2-(2-(1-methyl-2,6-dioxopiperidin-3-yl)-1,3-dioxo-2,3-dihydro-1H-benzo[de]isoquinolin-5-yloxy)ethoxy)ethoxy)ethyl)pyrazine-2,5-dicarboxamide], the “degradation … (decrease in NS3-eGFP abundance)” value [1] was “did not degrade HCV NS3”, the “binding to cereblon (concluded from degradation assay)” value ([1]; N-methylated glutarimide negative controls) was “unable to bind cereblon” and the “degradation of NS3 in the presence or absence of lenalidomide” value (HCV NS3 fusion protein) was “no significant degradation of NS3”.
In the case of `CCC[C@H](NC(=O)[C@@H]1[C@H]2CCC[C@H]2CN1C(=O)[C@@H](NC(=O)[C@@H](NC(=O)c1cnc(C(=O)NCCCCCCNc2cccc3c2CN(C2CCC(=O)NC2=O)C3=O)cn1)C1CCCCC1)C(C)(C)C)C(=O)C(=O)NC1CC1` (stereo partly drawn) [Compound 1, N2-((S)-1-cyclohexyl-2-((S)-1-((1S,3aR,6aS)-1-((S)-1-(cyclopropylamino)-1,2-dioxohexan-3-ylcarbamoyl)hexahydrocyclopenta[c]pyrrol-2(1H)-yl)-3,3-dimethyl-1-oxobutan-2-ylamino)-2-oxoethyl)-N5-(6-(2-(2,6-dioxopiperidin-3-yl)-1-oxoisoindolin-4-ylamino)hexyl)pyrazine-2,5-dicarboxamide], the “degradation of HCV NS3 by Western blot” value [1] is reported as “specific reduction in steady-state abundance”, the DC50 [1] is reported as 669 nM and the “effect of lenalidomide” value (HCV NS3 fusion protein) is reported as “Lenalidomide inhibited degradation of NS3”. For the same compound, the IC50 ([2]; Huh7.5, 48 h) was 3040 nM.
For `CCC[C@H](NC(=O)[C@@H]1[C@H]2CCC[C@H]2CN1C(=O)[C@@H](NC(=O)[C@@H](NC(=O)c1cnc(C(=O)NCCOCCOCCNc2cccc3c2C(=O)N(C2CCC(=O)NC2=O)C3=O)cn1)C1CCCCC1)C(C)(C)C)C(O)C(=O)NC1CC1` (stereo partly drawn) [Compound 11, N2-((1S)-1-cyclohexyl-2-((2S)-1-((1S,3aR,6aS)-1-((3S)-1-(cyclopropylamino)-2-hydroxy-1-oxohexan-3-ylcarbamoyl)hexahydrocyclopenta[c]pyrrol-2(1H)-yl)-3,3-dimethyl-1-oxobutan-2-ylamino)-2-oxoethyl)-N5-(2-(2-(2-(2-(2,6-dioxopiperidin-3-yl)-1,3-dioxoisoindolin-4-ylamino)ethoxy)ethoxy)ethyl)pyrazine-2,5-dicarboxamide], the “degradation … (decrease in NS3-eGFP abundance)” value [1] was “did not mediate degradation”.
With `CCC[C@H](NC(=O)[C@@H]1[C@H]2CCC[C@H]2CN1C(=O)[C@@H](NC(=O)[C@@H](NC(=O)c1cnc(C(=O)NCCOCCOCCNc2cccc3c2C(=O)N(C2CCC(=O)NC2=O)C3=O)cn1)C1CCCCC1)C(C)(C)C)C(=O)C(=O)NC1CC1` (stereo partly drawn) [Compound 3, N2-((S)-1-cyclohexyl-2-((S)-1-((1S,3aR,6aS)-1-((S)-1-(cyclopropylamino)-1,2-dioxohexan-3-ylcarbamoyl)hexahydrocyclopenta[c]pyrrol-2(1H)-yl)-3,3-dimethyl-1-oxobutan-2-ylamino)-2-oxoethyl)-N5-(2-(2-(2-(2-(2,6-dioxopiperidin-3-yl)-1,3-dioxoisoindolin-4-ylamino)ethoxy)ethoxy)ethyl)pyrazine-2,5-dicarboxamide] the “degradation of HCV NS3 by Western blot” value [1] was “specific reduction in steady-state abundance”, the “effect of lenalidomide” value (HCV NS3 fusion protein) was “Lenalidomide inhibited degradation of NS3” and the IC50 [2, 4] was 2620 nM. For the same compound, the IC50 (HCV in Huh7.5 cells; [3]) was 2920 nM.
